Test results taken from ChEMBL document CHEMBL1137953, “A novel approach to the synthesis of cytotoxic C2-C3 unsaturated pyrrolo[2,1-c]benzodiazepines (PBDs) with conjugated acrylyl C2-substituents” (2004).

Assays:
Format in all cases: functional
[1] = Lethal concentration of compound was evaluated against 60 cell lines in NCI screen
[2] = Compound was evaluated for total growth inhibition of 60 cell lines in NCI screen
[3] = Compound was evaluated for growth inhibition of 60 cell lines in NCI screen
[4] = test system: U-251; assay: Compound was evaluated for growth inhibition of central nervous system U251 cell line in NCI 60-cell line screen; details: Homo sapiens
[5] = test system: MCF7; assay: Compound was evaluated for growth inhibition of breast MCF-7 cell line in NCI 60-cell line screen; details: Homo sapiens
[6] = test system: HOP-92; assay: Compound was evaluated for growth inhibition of non-small cell lung HOP-92 cell line in NCI 60-cell line screen; details: Homo sapiens
[7] = test system: RXF 393; assay: Compound was evaluated for growth inhibition of renal RXF-393 cell line in NCI 60-cell line screen; details: Homo sapiens
[8] = test system: CCRF-CEM; assay: Compound was evaluated for growth inhibition of leukemia CCRF-CEM cell line in NCI 60-cell line screen; details: Homo sapiens
[9] = test system: UACC-257; assay: Compound was evaluated for growth inhibition of melanoma UACC-257 cell line in NCI 60-cell line screen; details: Homo sapiens
[10] = test system: OVCAR-5; assay: Compound was evaluated for growth inhibition of ovarian OVCAR-5 cell line in NCI 60-cell line screen; details: Homo sapiens
[11] = test system: HCT-116; assay: Compound was evaluated for growth inhibition of colon HCT116 cell line in NCI 60-cell line screen; details: Homo sapiens
[12] = test system: PC-3; assay: Compound was evaluated for growth inhibition of prostate PC-3 cell line in NCI 60-cell line screen; details: Homo sapiens

| SMILES | LC50 (50% lethal concentration) [1] | TGI [2] | GI50 [3] | GI50 [4] | GI50 [5] | GI50 [6] | GI50 [7] | GI50 [8] | GI50 [9] | GI50 [10] | GI50 [11] | GI50 [12] |
| --- | --- | --- | --- | --- | --- | --- | --- | --- | --- | --- | --- | --- |
| COc1cc2c(cc1OC)C(=O)N1C=C(/C=C/C(N)=O)C[C@H]1C=N2 | 69200 nM | 3720 nM | 53 nM |  |  |  |  |  |  |  |  |  |
| COC(=O)/C=C/C1=CN2C(=O)c3cc(OC)c(OC)cc3N=C[C@@H]2C1 | 55000 nM | 1320 nM | 13 nM |  |  |  |  |  |  |  |  |  |
| COc1cc2c(cc1OC)C(=O)N1C=C(/C=C/C(=O)N(C)C)C[C@H]1C=N2 | 650 nM | 96 nM | 12 nM | 3.33 nM | 7.15 nM | 2.34 nM | 1.65 nM | 0.6 nM | 0.25 nM | 3.21 nM | 11.7 nM | 18.6 nM |
| Cc1ccc2c(c1O)NC(O)C1CC(/C=C/C(N)=O)=CN1C2=O (stereo not given) [ANTHRAMYCIN] | 12700 nM | 610 nM | 29 nM | 20 nM | 39.8 nM | 20 nM | 31.6 nM | 20 nM | 63.1 nM | 50.1 nM | 39.8 nM | 20 nM |
